PubChem BioAssay (NCI)
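Test compounds were applied to cells in 96-well plates for 48 hours at 5 doses. TGI is the concentration that stops growth completely.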

Columns and labels:
Experiment in all cases: inhibition of tumour cell growth, NCI panel, 48 h
786-0 renal = tested on: 786-0 renal
A498 renal = tested on: A498 renal
A549 NSCLC = tested on: A549 NSCLC
ACHN renal = tested on: ACHN renal
CAKI-1 renal = tested on: CAKI-1 renal
CCRF-CEM leukemia = tested on: CCRF-CEM leukemia
COLO 205 colon = tested on: COLO 205 colon
DU-145 prostate = tested on: DU-145 prostate
EKVX NSCLC = tested on: EKVX NSCLC
HCC-2998 colon = tested on: HCC-2998 colon
HCT-116 colon = tested on: HCT-116 colon
HCT-15 colon = tested on: HCT-15 colon
HL-60(TB) leukemia = tested on: HL-60(TB) leukemia
HOP-62 NSCLC = tested on: HOP-62 NSCLC
HS 578T breast = tested on: HS 578T breast
HT29 colon = tested on: HT29 colon
IGROV1 ovarian = tested on: IGROV1 ovarian
K-562 leukemia = tested on: K-562 leukemia
KM12 colon = tested on: KM12 colon
LOX IMVI melanoma = tested on: LOX IMVI melanoma
M14 melanoma = tested on: M14 melanoma
MALME-3M melanoma = tested on: MALME-3M melanoma
MCF7 breast = tested on: MCF7 breast
MDA-MB-231 breast = tested on: MDA-MB-231 breast
MDA-N = tested on: MDA-N
MOLT-4 leukemia = tested on: MOLT-4 leukemia
NCI-H226 lung = tested on: NCI-H226 lung
NCI-H23 lung = tested on: NCI-H23 lung
NCI-H460 lung = tested on: NCI-H460 lung
NCI-H522 lung = tested on: NCI-H522 lung
NCI/ADR-RES ovarian = tested on: NCI/ADR-RES ovarian
OVCAR-3 ovarian = tested on: OVCAR-3 ovarian
OVCAR-4 ovarian = tested on: OVCAR-4 ovarian
OVCAR-5 ovarian = tested on: OVCAR-5 ovarian
OVCAR-8 ovarian = tested on: OVCAR-8 ovarian
PC-3 prostate = tested on: PC-3 prostate
RPMI-8226 leukemia = tested on: RPMI-8226 leukemia
RXF 393 renal = tested on: RXF 393 renal
SF-268 CNS = tested on: SF-268 CNS
SF-295 CNS = tested on: SF-295 CNS
SF-539 CNS = tested on: SF-539 CNS
SK-MEL-2 melanoma = tested on: SK-MEL-2 melanoma
SK-MEL-28 melanoma = tested on: SK-MEL-28 melanoma
SK-MEL-5 melanoma = tested on: SK-MEL-5 melanoma
SK-OV-3 ovarian = tested on: SK-OV-3 ovarian
SN12C renal = tested on: SN12C renal
SNB-19 CNS = tested on: SNB-19 CNS
SNB-75 CNS = tested on: SNB-75 CNS
SR leukemia = tested on: SR leukemia
SW-620 colon = tested on: SW-620 colon
T-47D breast = tested on: T-47D breast
TK-10 renal = tested on: TK-10 renal
U251 CNS = tested on: U251 CNS
UACC-257 melanoma = tested on: UACC-257 melanoma
UACC-62 melanoma = tested on: UACC-62 melanoma
UO-31 renal = tested on: UO-31 renal
BT-549 breast = tested on: BT-549 breast
HOP-92 NSCLC = tested on: HOP-92 NSCLC
MDA-MB-435 = tested on: MDA-MB-435

Compound: CC(C)/C(Cl)=N\OC(=O)Nc1cccc(Cl)c1
- TGI (786-0 renal): 29.1 µM
- TGI (A498 renal): 33.2 µM
- TGI (A549 NSCLC): 35.7 µM
- TGI (ACHN renal): 18.4 µM
- TGI (CAKI-1 renal): 34.8 µM
- TGI (CCRF-CEM leukemia): 5.05 µM
- TGI (COLO 205 colon): 4.61 µM
- TGI (DU-145 prostate): 51.2 µM
- TGI (EKVX NSCLC): 31.7 µM
- TGI (HCC-2998 colon): 31.7 µM
- TGI (HCT-116 colon): 36.2 µM
- TGI (HCT-15 colon): 31.3 µM
- TGI (HL-60(TB) leukemia): 3.3 µM
- TGI (HOP-62 NSCLC): > 86.1 µM
- TGI (HS 578T breast): 72.8 µM
- TGI (HT29 colon): 35.1 µM
- TGI (IGROV1 ovarian): 35 µM
- TGI (K-562 leukemia): 4.7 µM
- TGI (KM12 colon): 31.6 µM
- TGI (LOX IMVI melanoma): 8.71 µM
- TGI (M14 melanoma): 11 µM
- TGI (MALME-3M melanoma): 24.1 µM
- TGI (MCF7 breast): 32 µM
- TGI (MDA-MB-231 breast): 30.3 µM
- TGI (MDA-N): 28.6 µM
- TGI (MOLT-4 leukemia): 7.88 µM
- TGI (NCI-H226 lung): 38.9 µM
- TGI (NCI-H23 lung): 34 µM
- TGI (NCI-H460 lung): 18.6 µM
- TGI (NCI-H522 lung): 3.33 µM
- TGI (NCI/ADR-RES ovarian): > 57 µM
- TGI (OVCAR-3 ovarian): 10.8 µM
- TGI (OVCAR-4 ovarian): 27 µM
- TGI (OVCAR-5 ovarian): 18.3 µM
- TGI (OVCAR-8 ovarian): 29.4 µM
- TGI (PC-3 prostate): 29.7 µM
- TGI (RPMI-8226 leukemia): 25 µM
- TGI (RXF 393 renal): 32.5 µM
- TGI (SF-268 CNS): 47.2 µM
- TGI (SF-295 CNS): > 58.9 µM
- TGI (SF-539 CNS): 36.8 µM
- TGI (SK-MEL-2 melanoma): 30 µM
- TGI (SK-MEL-28 melanoma): 35.4 µM
- TGI (SK-MEL-5 melanoma): 26.6 µM
- TGI (SK-OV-3 ovarian): > 58.2 µM
- TGI (SN12C renal): 32.4 µM
- TGI (SNB-19 CNS): > 100 µM
- TGI (SNB-75 CNS): 33.2 µM
- TGI (SR leukemia): 7.22 µM
- TGI (SW-620 colon): 9.83 µM
- TGI (T-47D breast): 68.5 µM
- TGI (TK-10 renal): 28.6 µM
- TGI (U251 CNS): 34.4 µM
- TGI (UACC-257 melanoma): 26.8 µM
- TGI (UACC-62 melanoma): 46.3 µM
- TGI (UO-31 renal): 33.3 µM

Compound: C(=C\c1ccco1)/c1cccc(/C=C/c2ccco2)n1
- TGI (786-0 renal): > 50 µM
- TGI (A498 renal): > 50 µM
- TGI (A549 NSCLC): > 50 µM
- TGI (ACHN renal): > 50 µM
- TGI (BT-549 breast): > 50 µM
- TGI (CAKI-1 renal): > 50 µM
- TGI (CCRF-CEM leukemia): > 50 µM
- TGI (COLO 205 colon): > 50 µM
- TGI (DU-145 prostate): > 50 µM
- TGI (EKVX NSCLC): > 50 µM
- TGI (HCC-2998 colon): > 50 µM
- TGI (HCT-116 colon): > 50 µM
- TGI (HCT-15 colon): > 50 µM
- TGI (HL-60(TB) leukemia): > 50 µM
- TGI (HOP-62 NSCLC): > 50 µM
- TGI (HOP-92 NSCLC): > 50 µM
- TGI (HS 578T breast): > 50 µM
- TGI (HT29 colon): > 50 µM
- TGI (IGROV1 ovarian): > 50 µM
- TGI (K-562 leukemia): > 50 µM
- TGI (KM12 colon): > 50 µM
- TGI (LOX IMVI melanoma): > 50 µM
- TGI (M14 melanoma): > 50 µM
- TGI (MALME-3M melanoma): > 50 µM
- TGI (MCF7 breast): > 50 µM
- TGI (MDA-MB-435): > 50 µM
- TGI (MDA-N): > 50 µM
- TGI (MOLT-4 leukemia): > 50 µM
- TGI (NCI-H226 lung): > 50 µM
- TGI (NCI-H23 lung): > 50 µM
- TGI (NCI-H460 lung): > 50 µM
- TGI (NCI-H522 lung): > 50 µM
- TGI (NCI/ADR-RES ovarian): > 50 µM
- TGI (OVCAR-3 ovarian): > 50 µM
- TGI (OVCAR-4 ovarian): > 50 µM
- TGI (OVCAR-5 ovarian): > 50 µM
- TGI (OVCAR-8 ovarian): > 50 µM
- TGI (RPMI-8226 leukemia): > 50 µM
- TGI (RXF 393 renal): > 50 µM
- TGI (SF-268 CNS): > 50 µM
- TGI (SF-295 CNS): > 50 µM
- TGI (SF-539 CNS): > 50 µM
- TGI (SK-MEL-28 melanoma): > 50 µM
- TGI (SK-MEL-5 melanoma): > 50 µM
- TGI (SK-OV-3 ovarian): > 50 µM
- TGI (SN12C renal): > 50 µM
- TGI (SNB-19 CNS): > 50 µM
- TGI (SNB-75 CNS): 33.1 µM
- TGI (SR leukemia): > 50 µM
- TGI (SW-620 colon): > 50 µM
- TGI (TK-10 renal): > 50 µM
- TGI (UACC-257 melanoma): > 50 µM
- TGI (UACC-62 melanoma): > 50 µM
- TGI (UO-31 renal): > 50 µM
